The text below walks through data of US20150218172A1, “Pyrrolo[2,3-D]Pyrimidine Tropomyosin-Related Kinase Inhibitors” (PFIZER LIMITED, priority 2012, published 2015).

pIC50: −log10 of the molar value.

By pIC50 is commonly meant the IC50 on a negative log10 scale, so that one unit is a factor of ten.

In this assay the target is T1, TrkA (Homo sapiens, UniProt P04629).
T1 construct: aa 441-796; His; purchased Invitrogen PV3144
Briefly: Isolated TRK enzyme assay (HTRF KinEASE-TK kit), PV3144 TrkA enzyme assay. Type of assay: biochemical. To be noted: PV3144 TrkA enzyme assay, recombinant His-tagged cytoplasmic domain aa 441-796, 4 nM enzyme, 40 uM ATP; arithmetic mean where more than one reading; read-out: Trka enzyme (IC50). Summed up:
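HTRF KinEASE tyrosine-phosphorylation readout (665/620 nm ratio) on a 1 uM biotinylated substrate after reaction with preactivated His-tagged TrkA cytoplasmic domain plus ATP and MgCl2/DTT buffer. Compound preincubated 20 min with enzyme; IC50 from log-concentration sigmoid curve, averaged where repeated.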
(In general: In TR-FRET formats the signal depends on donor and acceptor labels being close together.)

T1 sequence (P04629 441-796): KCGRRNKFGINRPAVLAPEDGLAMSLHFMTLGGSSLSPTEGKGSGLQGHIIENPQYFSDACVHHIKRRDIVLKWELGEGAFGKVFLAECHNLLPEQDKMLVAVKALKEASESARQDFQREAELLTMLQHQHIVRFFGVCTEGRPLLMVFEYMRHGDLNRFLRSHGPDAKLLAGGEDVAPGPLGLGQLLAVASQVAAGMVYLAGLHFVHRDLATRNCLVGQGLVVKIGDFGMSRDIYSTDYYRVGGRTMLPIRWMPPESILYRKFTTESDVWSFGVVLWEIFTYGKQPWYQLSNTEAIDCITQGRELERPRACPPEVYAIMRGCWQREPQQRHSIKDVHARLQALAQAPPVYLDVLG

Turning to `COc1ccc(CC(=O)Nc2cc(C(=O)c3cn(C(C)C)c4ncncc34)ccn2)cc1` [Example 161, 2-(4-methoxyphenyl)-N-(4-{[7-(propan-2-yl)-7H-pyrrolo[2,3-d]pyrimidin-5-yl]carbonyl}pyridin-2-yl)acetamide], the pIC50 was 7.22.
Under `O=C(Cc1ccc(Cl)cc1Cl)Nc1ccnc(C(=O)c2cn(C(CO)CO)c3ncncc23)c1` [Example 95, 2-(2,4-dichlorophenyl)-N-(2-{[7-(1,3-dihydroxypropan-2-yl)-7H-pyrrolo[2,3-d]pyrimidin-5-yl]carbonyl}pyridin-4-yl)acetamide] stands 6.84.
Under `CC1(n2cc(C(=O)c3cc(NC(=O)Cc4ccc(F)cn4)ccn3)c3cncnc32)COC1` [Example 172, 2-(5-fluoropyridin-2-yl)-N-(2-{[7-(3-methyloxetan-3-yl)-7H-pyrrolo[2,3-d]pyrimidin-5-yl]carbonyl}pyridin-4-yl)acetamide] stands 5.97; under `O=C(Cc1ccc(C(F)(F)F)cc1)Nc1ccnc(C(=O)c2cn(C(CO)CO)c3ncncc23)c1` [Example 93, N-(2-{[7-(1,3-dihydroxypropan-2-yl)-7H-pyrrolo[2,3-d]pyrimidin-5-yl]carbonyl}pyridin-4-yl)-2-[4-(trifluoromethyl)phenyl]acetamide], 6.79; under `Cc1cc(C(=O)c2cn(C(C)C)c3ncncc23)cc(NC(=O)Cc2ccc(C#N)c(C(F)(F)F)c2)n1` [Example 78, 2-[4-cyano-3-(trifluoromethyl)phenyl]-N-(6-methyl-4-{[7-(propan-2-yl)-7H-pyrrolo[2,3-d]pyrimidin-5-yl]carbonyl}pyridin-2-yl)acetamide], 6.93.
Under `CC(C)(CO)n1cc(C(=O)c2ccc(C#N)c(NC(=O)Cc3ccc(C(F)(F)F)cc3)c2)c2cnc(N)nc21` [Example 7, N-{5-[2-Amino-7-(2-hydroxy-1,1-dimethyl-ethyl)-7H-pyrrolo[2,3-d]pyrimidine-5-carbonyl]-2-cyano-phenyl}-2-(4-trifluoromethyl-phenyl)-acetamide] stands 8.23.
For `C[C@H](CO)n1cc(C(=O)c2cc(NC(=O)Cc3ccc(C#N)cc3)ccn2)c2cncnc21` [Example 23, 2-(4-cyanophenyl)-N-[2-({7-[(2R)-1-hydroxypropan-2-yl]-7H-pyrrolo[2,3-d]pyrimidin-5-yl}carbonyl)pyridin-4-yl]acetamide], the pIC50 is 7.10.
Under `CC(C)n1cc(C(=O)c2ccnc(NC(=O)Cc3ccc(C#N)c(C(F)(F)F)c3)c2)c2cncnc21` [Example 71, 2-[4-cyano-3-(trifluoromethyl)phenyl]-N-(4-{[7-(propan-2-yl)-7H-pyrrolo[2,3-d]pyrimidin-5-yl]carbonyl}pyridin-2-yl)acetamide] stands 7.31; under `CC(C)(C)n1cc(C(=O)c2cc(NC(=O)Cn3ccc(C4CC4)n3)ccn2)c2cncnc21` [Example 40, N-{2-[(7-tert-butyl-7H-pyrrolo[2,3-d]pyrimidin-5-yl)carbonyl]pyridin-4-yl}-2-(3-cyclopropyl-1H-pyrazol-1-yl)acetamide], 8.08.
Regarding `CC(C)n1cc(C(=O)c2ccnc(NC(=O)Cc3ccc(C#N)cc3)c2)c2cnc(N)nc21` [Example 45, N-(4-{[2-amino-7-(propan-2-yl)-7H-pyrrolo[2,3-d]pyrimidin-5-yl]carbonyl}pyridin-2-yl)-2-(4-cyanophenyl)acetamide], the negative-log IC50 (pIC50) is 7.44.
As for `CC(C)c1cn(CC(=O)Nc2cc(C(=O)c3cn(CCO)c4ncncc34)ccn2)nn1` [Example 129, N-(4-{[7-(2-hydroxyethyl)-7H-pyrrolo[2,3-d]pyrimidin-5-yl]carbonyl}pyridin-2-yl)-2-[4-(propan-2-yl)-1H-1,2,3-triazol-1-yl]acetamide], the pIC50 is 6.70.
Under `CC(C)c1cn(CC(=O)Nc2cc(C(=O)c3cn(C(C)C)c4ncncc34)ccn2)nn1` [Example 164, N-(4-{[7-(propan-2-yl)-7H-pyrrolo[2,3-d]pyrimidin-5-yl]carbonyl}pyridin-2-yl)-2-[4-(propan-2-yl)-1H-1,2,3-triazol-1-yl]acetamide] stands 7.50; under `CC(C)n1cc(C(=O)c2ccnc(NC(=O)Cc3ccc(OC(F)(F)F)cc3)c2)c2cncnc21` [Example 120, N-(4-{[7-(propan-2-yl)-7H-pyrrolo[2,3-d]pyrimidin-5-yl]carbonyl}pyridin-2-yl)-2-[4-(trifluoromethoxy)phenyl]acetamide], 7.73; under `CC1(n2cc(C(=O)c3cc(NC(=O)Cc4cccc(C(F)(F)F)c4)ccn3)c3cncnc32)COC1` [Example 166, N-(2-{[7-(3-methyloxetan-3-yl)-7H-pyrrolo[2,3-d]pyrimidin-5-yl]carbonyl}pyridin-4-yl)-2-[3-(trifluoromethyl)phenyl]acetamide], 7.28.
As for `Cc1cc(C)n(CC(=O)Nc2cc(C(=O)c3cn(C(C)(C)C)c4ncncc34)ccn2)n1` [Example 174, N-{4-[(7-tert-butyl-7H-pyrrolo[2,3-d]pyrimidin-5-yl)carbonyl}pyridin-2-yl]-2-(3,5-dimethyl-1H-pyrazol-1-yl)acetamide], the figure is 7.56.
Under `CC(C)(CO)n1cc(C(=O)c2ccc(C#N)c(NC(=O)Cc3ccc(Cl)cc3)c2)c2cnc(N)nc21` [Example 9, N-(5-{[2-amino-7-(1-hydroxy-2-methylpropan-2-yl)-7H-pyrrolo[2,3-d]pyrimidin-5-yl]carbonyl}-2-cyanophenyl)-2-(4-chlorophenyl)acetamide] stands 7.95.
Consider `O=C(Cn1ccc(C(F)(F)F)n1)Nc1ccnc(C(=O)c2cn(C(CO)CO)c3ncncc23)c1` [Example 101, N-(2-{[7-(1,3-dihydroxypropan-2-yl)-7H-pyrrolo[2,3-d]pyrimidin-5-yl]carbonyl}pyridin-4-yl)-2-[3-(trifluoromethyl)-1H-pyrazol-1-yl]acetamide], for which the pIC50 is 6.61.
For `O=C(Cc1ccc(F)cc1F)Nc1cc(C(=O)c2cn(CCO)c3ncncc23)ccn1` [Example 140, 2-(2,4-difluorophenyl)-N-(4-{[7-(2-hydroxyethyl)-7H-pyrrolo[2,3-d]pyrimidin-5-yl]carbonyl}pyridin-2-yl)acetamide], the pIC50 was 6.65.
Turning to `CC(C)n1cc(C(=O)c2ccnc(NC(=O)Cc3ccccc3OC(F)(F)F)c2)c2cncnc21` [Example 119, N-(4-{[7-(propan-2-yl)-7H-pyrrolo[2,3-d]pyrimidin-5-yl]carbonyl}pyridin-2-yl)-2-[2-(trifluoromethoxy)phenyl]acetamide], the pIC50 is 7.15.
As to `Cc1cc(C(=O)c2cn(C(C)C)c3ncncc23)cc(NC(=O)Cc2ccccc2)n1` [Example 75, N-(6-methyl-4-{[7-(propan-2-yl)-7H-pyrrolo[2,3-d]pyrimidin-5-yl]carbonyl}pyridin-2-yl)-2-phenylacetamide], the pIC50 is 6.51.
For `Cc1cc(C)n(CC(=O)Nc2cc(C(=O)c3cn(CC4(O)CC4)c4ncncc34)ccn2)n1` [Example 177, 2-(3,5-Dimethyl-1H-pyrazol-1-yl)-N-[4-({7-[(1-hydroxycyclopropyl)methyl]-7H-pyrrolo[2,3-d]pyrimidin-5-yl}carbonyl)pyridin-2-yl]acetamide], the pIC50 was 6.21.
Under `C[C@@H](CO)n1cc(C(=O)c2cc(NC(=O)Cc3ccc(C#N)cc3)ccn2)c2cncnc21` [Example 15, 2-(4-cyanophenyl)-N-[2-({7-[(2S)-1-hydroxypropan-2-yl]-7H-pyrrolo[2,3-d]pyrimidin-5-yl}carbonyl)pyridin-4-yl]acetamide] stands 7.02; under `CC(C)n1cc(C(=O)c2cc(NC(=O)Cn3cc(C4CC4)nn3)ccn2)c2cnc(N)nc21` [Example 91, N-(2-{[2-amino-7-(propan-2-yl)-7H-pyrrolo[2,3-d]pyrimidin-5-yl]carbonyl}pyridin-4-yl)-2-(4-cyclopropyl-1H-1,2,3-triazol-1-yl)acetamide], 7.35; under `C[C@@H](CO)n1cc(C(=O)c2cc(NC(=O)Cc3ccc(Cl)cn3)ccn2)c2cncnc21` [Example 13, 2-(5-chloropyridin-2-yl)-N-[2-({7-[(2S)-1-hydroxypropan-2-yl]-7H-pyrrolo[2,3-d]pyrimidin-5-yl}carbonyl)pyridin-4-yl]acetamide], 6.64.
As for `CC(C)n1cc(C(=O)c2cc(NC(=O)Cn3ccc(C(F)(F)F)n3)ccn2)c2cnc(N)nc21` [Example 85, N-(2-{[2-amino-7-(propan-2-yl)-7H-pyrrolo[2,3-d]pyrimidin-5-yl]carbonyl}pyridin-4-yl)-2-[3-(trifluoromethyl)-1H-pyrazol-1-yl]acetamide], the figure is 7.27; as for `CC(C)n1cc(C(=O)c2ccnc(NC(=O)Cn3cc(C(F)(F)F)nn3)c2)c2cncnc21` [Example 116, N-(4-{[7-(propan-2-yl)-7H-pyrrolo[2,3-d]pyrimidin-5-yl]carbonyl}pyridin-2-yl)-2-[4-(trifluoromethyl)-1H-1,2,3-triazol-1-yl]acetamide], 7.22; as for `C[C@H](CO)n1cc(C(=O)c2cc(NC(=O)Cc3ccc(C(F)(F)F)cc3)ccn2)c2cncnc21` [Example 22, N-[2-({7-[(2R)-1-hydroxypropan-2-yl]-7H-pyrrolo[2,3-d]pyrimidin-5-yl}carbonyl)pyridin-4-yl]-2-[4-(trifluoromethyl)phenyl]acetamide], 7.23.
Under `Cc1cc(C(C)C)nn1CC(=O)Nc1cc(C(=O)c2cn(C(C)C)c3ncncc23)ccn1` [Example 151, 2-[5-methyl-3-(propan-2-yl)-1H-pyrazol-1-yl]-N-(4-{[7-(propan-2-yl)-7H-pyrrolo[2,3-d]pyrimidin-5-yl]carbonyl}pyridin-2-yl)acetamide] stands 7.67; under `C[C@@H](CO)n1cc(C(=O)c2cc(NC(=O)Cc3ccc(Cl)cc3)ccn2)c2cncnc21` [Example 16, 2-(4-chlorophenyl)-N-[2-({7-[(2S)-1-hydroxypropan-2-yl]-7H-pyrrolo[2,3-d]pyrimidin-5-yl}carbonyl)pyridin-4-yl]acetamide], 6.83.
